Measured values: EP1958941A1, “Oxazolidinones and their use as hypocholesterolemic agents” (Lipideon Biotechnology AG, priority 2007, dated 2008)

Test system: rabbit brush border membrane vesicles (BBMV)
Experiment: inhibition of cholesterol uptake in rabbit brush border membrane vesicles (scavenger receptor-mediated uptake of radiolabelled cholesterol ester from donor particles)
Type: biochemical
Conditions: inhibition of uptake of radiolabelled cholesterol ester from loaded donor particles into the BBMV bilayer; test concentration not given
Experimental: Chem. Int. Ed. 2004, 43, 4653-4656; Kvaerno, L. et. al. Org. Lett. 2005, 7, 1145-1148, van Bennekum, A. et. al. Biochemistry 2005, 44, 4517-4525).
The compounds of the invention (commercially obtained or prepared according to Wu, G. Z. et al., J. Org. Chem. 1999, 64, 3714-3718) together with the glucuronide (the metabolite of ezetimibe, prepared according to Vaccaro and Davis, Bioorg. Med. Chem. Lett. 1998, 8, 313-318) as appropriate reference compounds were evaluated by well-established methods to determine their inhibition of cholesterol uptake in rabbit brush border membrane vesicles (BBMV) (Table 1). Briefly, the scavenger receptor-mediated uptake of radiolabelled cholesterol ester from the loaded donor particles into the BBMV bilayer was measured in the presence of various compounds of the invention and appropriate reference compounds (Kvaerno, L. et al, Angew. Chem. Int. Ed. 2004, 43, 4653-4656; Kvaerno, L. et al, Org. Lett. 2005, 7, 1145-1148).

O=C(NCCN1CCOCC1)c1ccc(N2C(=O)O[C@H](CO)[C@H]2c2ccc(OCc3ccccc3)cc2)cc1 [Compound 36, 4-((4R,5S)-4-(4-(benzyloxy)phenyl)-5-(hydroxymethyl)-2-oxooxazolidin-3-yl)-N-(2-morpholinoethyl)-benzamide]
CAI (%) Inhibition: 33 ± 2%

O=C1O[C@H](Cn2nncc2-c2ccccc2)[C@@H](c2ccc(O)cc2)N1c1ccc(F)cc1 [Compound 29, (4R, 5R)-3-(4-fluorophenyl)-4-(4-hydroxyphenyl)-5-((5-phenyl-1H-1,2,3-triazol-1-yl)methyl)oxazolidin-2-one]
CAI (%) Inhibition: 15 ± 1%

O=C(NCCN1CCOCC1)c1ccc(N2C(=O)O[C@H](CO)[C@H]2c2ccc(O)cc2)cc1 [Compound 37, 4-((4R,5S)-5-(hydroxymethyl)-4-(4-hydroxy-phenyl)-2-oxooxazolidin-3-yl)-N-(2-morpholinoethyl)-benzamide]
CAI (%) Inhibition: 21 ± 3%

CN(C)CCNC(=O)c1ccc(N2C(=O)O[C@H](CO)[C@H]2c2ccc(O)cc2)cc1 [Compound 33, N-(2-(dimethylamino)ethyl)-4-((4R,5S)-5-(hydroxymethyl)-4-(4-hydroxyphenyl)-2-oxooxazolidin-3-yl)-benzamide]
CAI (%) Inhibition: 16 ± 2%

O=C1O[C@H](Cn2nncc2-c2ccc(F)cc2)[C@@H](c2ccc(O)cc2)N1c1ccc(F)cc1 [Compound 30, (4R,5R)-3-(4-fluorophenyl)-5-((5-(4-fluorophenyl)-1H-1,2,3-triazol-1-yl)methyl)-4-(4-hydroxyphenyl)oxazolidin-2-one]
CAI (%) Inhibition: 16 ± 1%

C[N+]1(CCNC(=O)c2ccc(N3C(=O)O[C@H](CO)[C@H]3c3ccc(OCc4ccccc4)cc3)cc2)CCOCC1.[I-] [Compound 38, 4-(2-(4-((4R,5S)-4-(4-(benzyloxy)phenyl)-5-(hydroxymethyl)-2-oxooxazolidin-3-yl)benzamido)ethyl)-4-methylmorpholin-4-ium iodide]
CAI (%) Inhibition: 24 ± 2%

C[N+](C)(C)CCNC(=O)c1ccc(N2C(=O)O[C@H](CO)[C@H]2c2ccc(O)cc2)cc1 [Compound 35, ((4R,5S)-4-(4-hydroxyphenyl)-5-(hydroxymethyl)-2-oxooxazolidin-3-yl)-N-(2-(trimethylamoniumbromide)ethyl)-benzamide]
CAI (%) Inhibition: 20 ± 1%

O=C1[C@H](CC[C@H](O)c2ccc(F)cc2)[C@@H](c2ccc(O)cc2)N1c1ccc(F)cc1 [Ezetimibe, reference compound]
CAI (%) Inhibition: 15 ± 4%

CCCNC(=O)c1ccc(N2C(=O)O[C@H](CO)[C@H]2c2ccc(O)cc2)cc1 [Compound 15, 4-((4R,5S)-5-(hydroxymethyl)-4-(4-hydroxyphenyl)-2-oxooxazolidin-3-yl)-N-propylbenzamide]
CAI (%) Inhibition: 15 ± 4%

C[N+](C)(C)CCNC(=O)c1ccc(N2C(=O)O[C@H](CO)[C@H]2c2ccc(OCc3ccccc3)cc2)cc1 [Compound 34, ((4R,5S)-4-(4-(benzyloxy)phenyl)-5-(hydroxy-methyl)-2-oxooxazolidin-3-yl)-N-(2-(trimethylamonium-iodide)ethyl)benzamide]
CAI (%) Inhibition: 29 ± 3%
